Laboratory results published in patent publication US8574546B2, “Substituted aryl-fluoroborates as imaging agents” (The University of British Columbia, priority 2007, dated 2013).

Columns and labels:
[1] = Rate of defluorination (18F/19F isotopic exchange) of aryltrifluoroborates, TLC autoradiography; type: physicochemical; settings: FIGS. 1-4, time points 0-180 minutes after labeling
Description: A solution of boronic acid/ester at approximately 200 mM in 3 μl DMF is made, and 3 μL of aqueous fluoride at 800 mM added, comprising ˜1 mCi of carrier free ^18F (˜0.6 pmol of ^18F) and carrier ^19F in the form of KHF2 in 800 mM HOAc at pH 3-4, in a total volume of 10 μl at 10 mM total, providing 100 nmol of total fluoride at a pH of 4.5. Following a one hour labeling reaction at room temperature, the extent of fluorination as well as the stability with regards to isotopic exchange is evaluated by thin layer chromotography TLC as described below.
1 μL of the fluorination mix is diluted 1:100 in 200 mM phosphate buffer pH 7.5, 100 mM K^19F and allowed to equilibrate. A “zero” time point is taken, consisting of 1 μL of the fluorination mix added to the above phosphate-KF solution, mixed and then 0.5 μL of this dilution is immediately spotted on a TLC plate. […] A separate dilution is made for each time point. Spots are dried on the plate briefly in ambient air. […]
Once completed, an aliquot (1.5 μL) from the fluorination reaction solution is the added to a volume of 300 μL of a chase solution containing 200 mM phosphate and 100 mM KF (pH 7.5). […] Autoradiograms are then generated and analyzed by a phosphoimager. The densities of the free fluoride spot and the ArBF3 spot are quantified. […]

[2] = [18F] isotope exchange of [18/19F]-(3), dissociation rate of [18F]-fluoride from the trifluoroborate; type: physicochemical; settings: 200 mM PO4, pH 7.5, 100 mM [19F]-NaF
Description: [^18F] Isotope Exchange—Using the Low-Activity Radiochemical Synthesis of [^18/19F]-(3).
In order to assay the dissociation rate of [^18F]-fluoride from the trifluoroborate (3), The six aliquots of Sample-A (each 10 μL, 1.5 nmol [^18/19F]-(3), 0.45 μCi (t=184 min)) were diluted 30 fold into 300 μL of a 200 mM PO4, pH 7.5, 100 mM [^19F]—NaF solution at different times. A volume of 0.5 μL of each dilution was spotted on a TLC plate which is run 2 inches in a 5:95 NH4OH:ethanol developing solution. Each spot that was deposited on the plate had spent increasing amounts of time in the solution containing a vast excess of [^19F]-fluoride. Following autoradiography, a rate constant for the isotopic exchange of [^18F]-fluoride from [^18/19F]-(3) was calculated.

SMILES | retention of the fluorine radioisotope (18F) on TLC autoradiogram [1] | period in which 10% of the fluoride is solvolytically liberated [2] [min]
O=C(O)c1cccc(B(O)O)c1 [Compound 12] | retain the fluorine radioisotope longer than compounds 10 or 19 | –
OB(O)c1cccc(F)c1F [Compound 22] | retain the fluorine radioisotope longer than compounds 10 or 19 | –
O=C1N[C@H]2[C@H](CS[C@H]2CCCCC(=O)N2CCN(C(=O)c3c(F)cc(F)c([B-](F)(F)F)c3F)CC2)N1 [(3), (2-(1,3,5-trifluoro-4-(trifluoroboryl)benzoyl)piperazin-1-yl) biotin] | – | ≥ 833
